Measurements published in patent US20230071763A1, “AURISTATIN-RELATED COMPOUNDS, CONJUGATED AURISTATIN-RELATED COMPOUNDS, AND METHODS OF USE THEREOF” (CYTOMX THERAPEUTICS, INC., priority 2020, published 2023).
pKd: −log10 of the molar value.

How the values were obtained:
[1] = target: T1, mouse CES-1C (Mus musculus, UniProt P23953); test: Stability to carboxylesterase, mouse CES-1C; format: in vitro ADME; settings: 37° C., in 48 hrs
T1 sequence (P23953 19-554): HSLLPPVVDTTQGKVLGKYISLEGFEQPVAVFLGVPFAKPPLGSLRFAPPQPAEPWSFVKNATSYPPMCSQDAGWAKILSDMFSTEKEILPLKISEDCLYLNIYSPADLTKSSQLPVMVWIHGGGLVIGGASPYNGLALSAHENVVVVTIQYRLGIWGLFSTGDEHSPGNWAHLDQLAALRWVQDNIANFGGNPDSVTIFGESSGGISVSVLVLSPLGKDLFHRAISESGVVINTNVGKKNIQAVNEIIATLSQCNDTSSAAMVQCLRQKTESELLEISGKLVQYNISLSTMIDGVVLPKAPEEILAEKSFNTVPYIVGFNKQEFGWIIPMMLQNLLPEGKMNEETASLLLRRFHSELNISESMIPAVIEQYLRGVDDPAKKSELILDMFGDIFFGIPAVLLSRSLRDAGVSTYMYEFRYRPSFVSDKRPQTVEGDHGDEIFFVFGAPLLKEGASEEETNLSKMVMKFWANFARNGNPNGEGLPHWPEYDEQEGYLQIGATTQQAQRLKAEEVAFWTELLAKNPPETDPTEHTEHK
Experimental: (§1) In a further exemplary study, the stability of the substrates were determined in the presence of […] different carboxylesterases (human or mouse CES-1 and CES-1C). In this study, the enzymes were activated prior to substrate introduction and then incubated with the substrate at 37° C. over a 48 h time period.

[2] = target: T2, human CES-1C (Homo sapiens, UniProt P23141); test: Stability to carboxylesterase, human CES-1C; format: in vitro ADME; settings: 37° C., in 48 hrs
T2 sequence (P23141 18-566 isoform P23141-3 limits assumed): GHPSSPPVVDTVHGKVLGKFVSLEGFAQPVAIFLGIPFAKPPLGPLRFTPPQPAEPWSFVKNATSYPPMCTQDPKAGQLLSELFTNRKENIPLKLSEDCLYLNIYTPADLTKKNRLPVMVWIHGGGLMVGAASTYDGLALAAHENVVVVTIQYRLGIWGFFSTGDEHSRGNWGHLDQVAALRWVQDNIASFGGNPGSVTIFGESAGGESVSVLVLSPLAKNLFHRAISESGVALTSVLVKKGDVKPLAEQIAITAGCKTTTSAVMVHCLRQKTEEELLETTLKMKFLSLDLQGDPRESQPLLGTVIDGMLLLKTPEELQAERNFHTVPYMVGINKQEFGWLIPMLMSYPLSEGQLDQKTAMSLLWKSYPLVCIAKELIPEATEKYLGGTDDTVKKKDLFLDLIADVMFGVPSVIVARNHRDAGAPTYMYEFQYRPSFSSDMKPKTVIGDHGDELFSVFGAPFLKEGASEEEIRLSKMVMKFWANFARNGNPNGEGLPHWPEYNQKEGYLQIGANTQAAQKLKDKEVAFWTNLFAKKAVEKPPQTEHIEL
Experimental: as §1

[3] = target: tubulin; test: Binding to tubulin
[4] = system: PC3; test: In vitro cytotoxicity (Presto Blue), PC3; format: cell-based; settings: 5 days treatment, percent survival
Experimental: (§2) In this assay, the test cells were plated and grown to an appropriate cell density (e.g., 1500 cells/well (50 μL per well) for SW780 cells). The cells were treated with the drug (MMATH or MMAE (monomethylauristatin E)) at concentrations ranging from 10 μM to 10^−4 nM in triplicate for 5 days. On the day 6 endpoint, the cells were incubated with 20 μL of Presto Blue @ 37 C for 2 hr and the signal was read on a Biotek synergy H4 plate reader. After media background was subtracted, the percent survival was calculated and plotted to determine the EC50, as shown in the exemplary results of Table 1.

[5] = system: SKOV3; test: In vitro cytotoxicity (Presto Blue), SKOV3; format: cell-based; settings: 5 days treatment, percent survival
Experimental: as §2

[6] = system: SW780 cells; test: In vitro cytotoxicity (Presto Blue), SW780; format: cell-based; settings: 5 days treatment, percent survival
Experimental: as §2

[7] = system: HCC1954; test: In vitro cytotoxicity (Presto Blue), HCC1954; format: cell-based; settings: 5 days treatment, percent survival
Experimental: as §2

Compound | cleavage by mouse CES-1C [1] | cleavage by human CES-1C [2] | pKd [3] | EC50 [4] [nM] | EC50 [5] [nM] | EC50 ([6]; first SW780 column) [nM] | EC50 ([6]; second SW780 column) [nM] | EC50 [7] [nM] | EC50 ([4]; Homo sapiens, PC-3, 120 h) [nM] | EC50 ([5]; Homo sapiens, SK-OV-3, 120 h) [nM] | EC50 ([6]; Homo sapiens, SW780, 120 h, first SW780 column) [nM] | EC50 ([6]; Homo sapiens, SW780, 120 h, second SW780 column) [nM] | EC50 ([7]; Homo sapiens, HCC1954, 120 h) [nM]
CC[C@H](C)C([C@@H](CC(=O)N1CCC[C@H]1[C@H](OC)[C@@H](C)C(=O)N[C@H](C)[C@@H](O)c1ccccc1)OC)N(C)C(=O)[C@@H](NC(=O)[C@@H](NC)C(C)C)C(C)C (some centres unmarked) [Cys-vc-MMAE] | completely cleaved | completely cleaved |  |  |  |  |  |  |  |  |  |  | 
CC[C@H](C)[C@@H]([C@@H](CC(=O)N1CCC[C@H]1[C@H](OC)[C@@H](C)C(=O)N[C@H](C)[C@@H](O)c1ccccc1)OC)N(C)C(=O)[C@@H](NC(=O)[C@@H](NC)C(C)C)C(C)C [MMAE, monomethylauristatin E] |  |  | 7.16 | 0.24 | 0.19 | 0.31 | 0.22 | 0.03 |  |  |  |  | 
CCC(C)C(C(CC(=O)N1CCCC1C(OC)C(C)C(=O)NC(CO)Cc1cccs1)OC)N(C)C(=O)C(NC(=O)C(NC)C(C)C)C(C)C (centres unmarked) [MMATH] |  |  | 6.69 |  |  |  |  |  | 0.24 | 0.2 | 0.38 | 0.26 | 0.03
